# Patent US20210180080A1, “USE OF ALS MUTANT PROTEIN AND THE GENE THEREOF IN PLANT BREEDING BASED ON GENE EDITING TECHNOLOGY” (priority 2018, published 2021)
# Columns and labels:
# Assay type in all cases: in vivo
# [1] = tested on: transgenic lines A1-A58 of rice Nanjing 9108; experiment: herbicide screening of T1 generation transgenic lines; details: 210 g (a.i.) hm^−2, investigated after 14 days
# Method: The T0 generation plants were harvested as an individual plant, and the harvested seeds were germinated and sown at a density of 450 kg hm^−2. When the rice growed to two leaves and one heart, the water was drained from the field and imazethapyr (aqueous agent, purchased from Nanjing Aijin Agrochemical Co., Ltd.) was sprayed at 210 g (a.i.) hm^−2. Rehydrate after spraying for 24 h, and investigate resistance after 14 days. Plants with all withered or dead leaves were susceptibleness, while the healthy and viable plants were resistance. […] Therefore, the frequency of obtaining herbicide resistant strains in this study was 1.72%. According to reports, the mutation frequency of herbicide resistant rice lines obtained by chemical mutagenesis was 0.00003^˜0.006%.
# [2] = tested on: wild-type rice Nanjing 9108; experiment: herbicide resistance identification by spraying rice seedlings, wild type; details: investigated 14 days later
# Excerpt: (§1) The homozygous mutant T1 individual plants identified in Examples 2 and 3 were propagated, and the seeds were harvested in the artificial climate room of Nanjing Jiangsu Academy of Agricultural Sciences, which were the T2 generation; the T2 generation was continued to be propagated to obtain T3 Generation seeds. After accelerating the germination of the harvested T3 seeds, they were sown at a density of 450 kg hm^−2. When the rice growed to two leaves and one heart, the field water was drained and imazethapyr (aqueous agent, purchased from Nanjing Aijin Agrochemical Co., Ltd.) was sprayed at 210, 700, and 1400 g(a.i.) hm^−2 concentrations, respectively, with the water as the control group. After spraying for 24 h, the water was rehydrated, and the resistance was investigated 14 days later.
# (§2) After accelerating germination of the T3 generation seeds in Example 4, they were sown at a density of 450 kg hm^−2. When the rice growed to two leaves and one heart, water in the field water was drained and Bailongtong (aqueous agent, purchased from Nanjing Aijin Agrochemical Co., Ltd.) was sprayed at 240, 2400, 4800 g(ai) hm^−2 concentration with water as the control group. After spraying for 24 h, the water was rehydrated, and the resistance was investigated 14 days later.
# [3] = tested on: Mutant A51 rice (ALS amino acid 628 glycine to tryptophan); experiment: herbicide resistance identification by spraying rice seedlings, mutant; details: investigated 14 days later
# Excerpt: as §1, §2
# [4] = 210 g(a.i.) hm^−2 sprayed at two leaves and one heart
# [5] = 210 g(a.i.) hm^−2 sprayed at two leaves and one heart, listed as Imazethapyr
smiles,measurement,setting,value
CCc1cnc(C2=NC(C)(C(C)C)C(=O)N2)c(C(=O)O)c1 (stereo not drawn) [imazethapyr],resistance of A51 line plants after spraying,"[1]; A51 line, T1 generation",survived and showed herbicide resistance
same,resistance of the other 57 lines after spraying,"[1]; the other 57 of lines A1-A58, T1 generation",died
same,resistance (survival) of wild-type plants after spraying,[2]; [4],all died
same,resistance (survival) of wild-type plants after spraying,[2]; [5],appear to die in whole
same,resistance (survival) of wild-type plants after spraying,[2]; 700 g(a.i.) hm^−2 sprayed at two leaves and one heart,all died
same,resistance (survival) of wild-type plants after spraying,[2]; 1400 g(a.i.) hm^−2 sprayed at two leaves and one heart,all died
same,resistance (survival) of mutant plants after spraying,[3]; [4],could survive
same,resistance (survival) of mutant plants after spraying,[3]; [5],still grow and develop normally
same,resistance (survival) of mutant plants after spraying,[3]; 240 g(ai) hm^−2 sprayed at two leaves and one heart,survived
same,resistance (survival) of mutant plants after spraying,"[3]; 700 g(a.i.) hm^−2 sprayed at two leaves and one heart, T3 generation",could survive
same,resistance (survival) of mutant plants after spraying,"[3]; 1400 g(a.i.) hm^−2 sprayed at two leaves and one heart, T3 generation",could survive
same,resistance (survival) of mutant plants after spraying,"[3]; 2400 g(ai) hm^−2 sprayed at two leaves and one heart, T3 generation",survived
